Tests used:
MARCKS = experiment: Phosphorylation state of MARCKS in airway epithelial cells; assay type: cell-based, human
Method: To detect MARCKS protein in these cells, cells were labeled with ^3H-myristic acid (as MARCKS is myristoylated) for 16 hours in media. Cells were lysed, and MARCKS protein was immunoprecipitated according to the method of Spizz & Blackshear (J Biol Chem 271:553, 1996) using monoclonal antibody 2F12 (a gift from the Blackshear laboratory).
(§1) Phosphorylation of MARCKS by PMA was attenuated by Calphostin C (500 nM). NHBE cells also contained substantial amounts of cGMP-dependent protein kinase type 1α (PKG-1α) activity, which was localized to the cytosolic fraction. […] In addition, the phosphorylation of MARCKS induced by PMA was reversed by incubation with 8-Br-cGMP (10 µM).

[1] = test system: normal human bronchial epithelial (NHBE) cells; experiment: UTP-induced mucin secretion, air-liquid interface culture, mucus ELISA; assay type: cell-based; details: for mucin secretion in cells stimulated by secretagogues: general statement, Example 9: 15 min pre-incubation, UTP 0.1 mM 2 hours, 500 nM calphostin C, 10 µM Rp-8-Br-PET-cGMP, 50 µM LY83583
Method: (§2) Cell Culture System: Expansion and cryopreservation. Primary normal human bronchial epithelial (NHBE) cells (Clonetics, San Diego, CA) were seeded into vented T75 tissue culture flasks (500 cells/cm^2) in bronchial epithelial basal medium (BEBM; Clonetics, San Diego, CA) containing 25 ng/ml human recombinant epidermal growth factor (EGF; Intergen, Purchase, NY), 65 ng/ml bovine pituitary extract (prepared by the methods of Bertolero et al. Exp Cell Res 155:64, 1984), 5 x 10^-8M all-trans retinoic acid, 1.5µg/ml bovine serum albumin (Intergen, Purchase, NY), 20 IU/ml nystatin (Gibco, Grand Island, NY), 0.5µg/ml hydrocortisone, 5µg/ml insulin, 10µg/ml transferrin, 0.5µg/ml epinephrine, 6.5ng/ml triiodothyronine, 50µg/ml gentamicin, and 50µg/ml amphotericin-B (Clonetics; San Diego, CA). Once confluent, cultures were dissociated with trypsin/EDTA and frozen as passage-2 according to the methods of Clonetics Corporation.
Air-liquid interface culture of NHBE cells. Following the expansion, NHBE cells were cultured in air/liquid interface according to the methods of Gray and coworkers with minor modifications (Gray et al. Am J Respir Cell Mol Biol 14:104, 1996). The air-liquid interface culture was initiated by seeding NHBE cells (passage-2, 2x10^4 cells/cm^2) on Transwell-clear culture inserts (24.5 mm, 0.45 µm pore size; Costar, Cambridge, MA) that were thin coated with rat tail collagen, type I (Collaborative Research, Bedford, MA). Cells were cultured submerged to 70% confluency (5-7 days) in a 1:1 mixture of bronchial epithelial cell growth medium (Clonetics, San Diego, CA):Dulbecco's modified Eagles medium with high glucose (BEGM:DMEM-H), containing the same supplements as described above with the exception of EGF (0.5 ng/ml). When cultures were 70% confluent, the air-liquid interface was created by removing the apical medium, and the basal medium (BEGM:DMEM-H) was changed daily thereafter. Cells were then cultured for an additional 14 days in air-liquid interface, a total of 21 days in culture.
(§3) Mucus ELISA: Mucus secreted from the airway epithelial cells in vitro after stimulation by activators was assessed using an ELISA (antibody capture method) (E. Harlow, D. Lane. "Antibodies: A Laboratory Manual." New York: Cold Spring Harbor Laboratory Press, 1988), wherein the collected mucus is bound directly to the ELISA plate. Mucus was detected using an antibody raised against monkey airway mucus (Lin et al. Am J Respir Cell Mol Biol 1:41, 1989). […]
NHBE cells were pre-incubated with the indicated inhibitor for 15 min, then stimulated with UTP (0.1mM) for 2 hours. Secreted mucin in the apical medium was collected and assayed by ELISA.

[2] = test system: normal human bronchial epithelial (NHBE) cells; experiment: Mucin secretion stimulated by PMA + 8-Br-cGMP, air-liquid interface culture, mucus ELISA; assay type: cell-based; details: 500nM, pre-incubated 15 min; PMA (100 nM) + 8-Br-cGMP (1µM) for 15 min
Method: as §2, with “Corporation. […]” for “Corporation.”
as §3

[3] = target: T1, cGMP-dependent protein kinase type 1α (PKG-1α) (Homo sapiens, UniProt Q13976); experiment: PKG activity in NHBE cells; assay type: cell-based; details: 100 µM
T1 construct: NHBE cells also contained substantial amounts of cGMP-dependent protein kinase type 1α (PKG-1α) activity; endogenous in cells; host or cells: primary normal human bronchial epithelial (NHBE) cells, Clonetics
T1 sequence (Q13976 1-671): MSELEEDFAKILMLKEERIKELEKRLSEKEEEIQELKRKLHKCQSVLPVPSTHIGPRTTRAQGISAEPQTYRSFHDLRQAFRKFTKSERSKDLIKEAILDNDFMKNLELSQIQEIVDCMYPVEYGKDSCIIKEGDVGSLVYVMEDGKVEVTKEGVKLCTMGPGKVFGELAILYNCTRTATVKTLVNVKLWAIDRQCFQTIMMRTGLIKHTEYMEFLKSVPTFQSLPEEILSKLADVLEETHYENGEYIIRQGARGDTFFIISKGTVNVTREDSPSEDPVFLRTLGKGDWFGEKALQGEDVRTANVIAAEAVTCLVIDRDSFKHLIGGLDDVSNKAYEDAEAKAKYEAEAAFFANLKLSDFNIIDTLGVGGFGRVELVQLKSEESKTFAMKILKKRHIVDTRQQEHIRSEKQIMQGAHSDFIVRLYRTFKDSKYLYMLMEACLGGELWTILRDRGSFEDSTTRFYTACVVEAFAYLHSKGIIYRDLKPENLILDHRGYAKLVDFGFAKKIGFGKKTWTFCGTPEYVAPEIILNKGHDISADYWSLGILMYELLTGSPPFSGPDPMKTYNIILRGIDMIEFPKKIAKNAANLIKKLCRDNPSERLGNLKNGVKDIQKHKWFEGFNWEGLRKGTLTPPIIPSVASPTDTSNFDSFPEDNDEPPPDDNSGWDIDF
Method: as §1

Nc1nc2c(nc(Br)n2[C@@H]2O[C@@H]3COP(=O)(O)O[C@H]3[C@H]2O)c(=O)[nH]1 [8-Br-cGMP, 8-bromo-cGMP]
phosphorylation of MARCKS induced by PMA (MARCKS; 10 µM): reversed

O=C1C(Nc2ccccc2)=CC(=O)c2ncccc21 [LY83585]
mucin secretion in cells stimulated by secretagogues [1]: inhibit mucin secretion

CCCCCCCCCCCCCC(=O)O[C@@H]1[C@@H](C)[C@@]2(O)[C@@H](C=C(CO)C[C@]3(O)C(=O)C(C)=C[C@@H]23)[C@@H]2C(C)(C)[C@]12OC(C)=O [PMA, phorbol 12-myristate 13-acetate]
phosphorylation of MARCKS (MARCKS; PMA 100 nM, concentration of 4α-PMA not given): phosphorylated

O=c1c2nc(Br)n(C3OC4COP(=O)(S)OC4C3O)c2nc2[nH]c(-c3ccccc3)cn12 (centres unmarked) [Rp-8-Br-PET-cGMP]
mucin secretion in cells stimulated by secretagogues [1]: inhibit mucin secretion

C=C1[C@@H](O)[C@@H]2O[C@]3(CC[C@H](/C=C/[C@@H](C)[C@@H]4CC(C)=C[C@@]5(O[C@H](C[C@@](C)(O)C(=O)O)CC[C@H]5O)O4)O3)CC[C@H]2O[C@@H]1[C@@H](O)C[C@H](C)[C@H]1O[C@@]2(CCCCO2)CC[C@H]1C [okadaic acid]
mucin hypersecretion induced by PMA + 8-Br-cGMP [2]: blocks mucin hypersecretion
reversal by 8-Br-cGMP of PMA-induced phosphorylation of MARCKS (MARCKS; 500 nM): inhibited this effect
mucin hypersecretion induced by UTP ([1]; 500nM, pre-incubated 15 min, UTP (0.1 mM) for 2 hours): blocks mucin hypersecretion
mucin secretion in cells stimulated by secretagogues [1]: inhibit mucin secretion

calphostin C
phosphorylation of MARCKS by PMA (MARCKS; 500 nM): attenuated
mucin secretion in cells stimulated by secretagogues [1]: inhibit mucin secretion

dibutyryl cGMP
constitutive PKG activity [3]: increased

Reference: patent EP1538162B1, “Compositions for altering mucus secretion” (NORTH CAROLINA STATE UNIVERSITY, priority 1999, dated 2000)
